For one molecule, IC50 results are on record in ChEMBL document CHEMBL1133885, “A short synthesis of argatroban. a potent selective thrombin inhibitor” (Bioorg Med Chem Lett, 2001).

This assay is described as follows: Concentration required for 50% inhibition of thrombin induced platelet aggregation. The class given is functional.

The IC50 is the concentration needed to halve the response being measured. High values mean weaker potency, low ones greater potency. As for `C[C@@H]1CCN(C(=O)[C@H](CCCNC(=N)N)NS(=O)(=O)c2cccc3c2NC[C@H](C)C3)[C@@H](C(=O)O)C1` [ARGATROBAN], the IC50 was 9 nM.
